Data from US6001851A, “HIV protease inhibitors” (Agouron Pharmaceuticals, Inc., priority 1998, dated 1999).
Read-outs that look alike come from different tables or passages of the source.

What was measured:
HIV-1 RF = test: Cell protection assay (MTT dye reduction): acute infection of CEM-SS cells with HIV-1 RF; type: cell-based, HIV-1 strain RF (in human T cell line CEM-SS); details: for EC95: read-out: ED95; for Therapeutic index: TC50/ED50, CEM-SS cells, 8640 min
Protocol: (§1) The CEM-SS and MT-2 human T cell lines and HIV-1 strains RF and IIIB were obtained from the AIDS Research and Reference Program, Division of AIDS, NIAID, and NIH.
(§2) The inhibitory effects of each agent on HIV-1 replication were measured by the MTT dye reduction method (Alley, M. C. et al., Cancer Res. 48: 589-601 (1988)). Compounds were dissolved in DMSO at a concentration of 40 mg/ml then diluted 1:200 in culture medium (RPMI, supplemented with 10% fetal bovine serum). From each diluted stock, 100 μl was added to a 96-well plate and serial half-log dilutions were prepared. In separate tubes, MT-2 cells and CEM-SS cells were infected with HIV-1 IIIB or HIV-1 RF at a multiplicity of infection (m.o.i.) of 0.01 and 0.03, respectively. Following a 4-hour adsorption period, […] of infected or uninfected cells were added to the wells of the drug containing plate to give a final concentration of 1×10^4 cells/well. Six days (CEM-SS cells) or 7 days (MT-2 cells) later, MTT (5 mg/ml) was added to test plates and the amount of formazan produced was quantified spectrophotometrically at 570 nm. Data were expressed as the percentage of formazan produced in drug-treated cells compared to formazan produced in wells of uninfected, drug-free cells. The EDS50 was calculated as the concentration of drug that increased the percentage of formazan production in infected, drug-treated cells to 50% of that produced by uninfected, drug-free cells. Cytotoxicity (TC50) was calculated as the concentration of drug that decreased the percentage of formazan produced in uninfected, drug-treated cells to 50% of that produced in uninfected, drug-free cells. The therapeutic index (TI) was calculated by dividing the cytotoxicity (TC50) by the antiviral efficacy (ED50).

[1] = Cytotoxicity in uninfected CEM-SS cells (MTT); type: cell-based; details: human
Protocol: as §1, §2

HIV-1 IIIB = test: Cell protection assay (MTT dye reduction): acute infection of MT-2 cells with HIV-1 IIIB; type: cell-based, HIV-1 strain IIIB (in human T cell line MT-2); details: for Therapeutic: therapeutic index TC50/ED50, MT-2 cells, 10080 min
Protocol: as §1, §2

[2] = Cytotoxicity in uninfected MT-2 cells (MTT); type: cell-based; details: human
Protocol: as §1, §2

HIV-1 protease (Q7S) = molecular target: T1, HIV-1 protease (Q7S) (Human immunodeficiency virus type 1 group M subtype B, UniProt P03366, Q507S); test: Tight-binding kinetics assay, HIV-1 protease inhibition (modified chromogenic assay); type: biochemical, HIV-1 (viral strain IIIB)
T1 construct: HIV-1 protease gene was isolated from the viral strain IIIB; made in house; host or cells: E. coli BL21(DE3), plasmid pGZ/HP-19Q7S#9
Protocol: Proteolytic activity of purified HIV-1 protease was measured using a modified chromogenic assay developed by Richards at al. (Richards, A. D. et al. J. Biol. Chem., 256, 773-7736 (1990)). […] The assay was carried out in 0.5 M NaCl, 50 mM MES pH 5.6, 5 mM DDT, and 2% DMSO at 37° C. Cleavage of the scissile bond between leucine and paranitro-phenylalanine (Phe para-NO2) was assayed by spectrophotometric monitoring of the decrease on absorbance at 305 nm.

[3] = Metabolite obtained from the plasma of patients; type: in vivo; details: plasma of patients administered the N-t-butylcarboxamide methanesulfonic acid salt of U.S. Pat. No. 5,484,926
From the text: A process for making compound 21 is provided below.

[4] = uninfected CEM-SS cells, 6 days, read-out: TC50
[5] = uninfected MT-2 cells, 7 days, read-out: TC50
[6] = Human immunodeficiency virus 1, 144 h, CEM-SS cells, HIV-1 RF, m.o.i. 0.03, 6 days, read-out: ED50 (the source's name)
[7] = Human immunodeficiency virus 1, 144 h, CEM-SS cells, HIV-1 RF, m.o.i. 0.03, 6 days
[8] = Human immunodeficiency virus 1, MT2, 168 h, MT-2 cells, HIV-1 IIIB, m.o.i. 0.01, 7 days, read-out: ED50 (the source's name)

Molecule | EC50 (HIV-1 RF; Human immunodeficiency virus 1, CEM-SS, 144 h, read-out: ED50) [nM] | EC95 (HIV-1 RF; Human immunodeficiency virus 1, CEM-SS, 144 h) [nM] | Therapeutic index (HIV-1 RF; HIV-1 RF) | CC50 at 144 h [1, 4] [nM] | EC50 (HIV-1 IIIB; Human immunodeficiency virus 1, IIIB, MT2, 168 h, read-out: ED50) [nM] | Therapeutic (HIV-1 IIIB; HIV-1 IIIB) | CC50 at 168 h [2, 5] [nM] | Ki (HIV-1 protease (Q7S); tight binding kinetics, 200 uM substrate, pH 5.6, 37° C., Morrison fit) [nM] | EC50 (HIV-1 RF; [6]) [nM] | EC95 (HIV-1 RF; [7]) [nM] | EC50 (HIV-1 IIIB; [8]) [nM] | obtained as a metabolite [3] | CC50 at 144 h ([1]; cem-ss cells) [nM] | CC50 at 168 h ([2]; mt-2 cells) [nM] | Km (HIV-1 protease (Q7S); substrate, Q7S HIV-1 protease, 0.5 M NaCl, 50 mM MES pH 5.6, 2% DMSO, 37° C., read-out: Michaelis constant (Km)) [µM]
Cc1cn([C@H]2C[C@H](N=[N+]=[N-])[C@@H](CO)O2)c(=O)[nH]c1=O [AZT, azidothymidine] | 52.3 | 543 | > 7161 | > 374000 | 431 | 254 | 109000 |  |  |  |  |  |  |  | 
Cc1c(O)cccc1C(=O)NC(CSc1ccccc1)C(O)CN1CC2CCCCC2CC1C(=O)NC(C)(C)CO (stereo not drawn) [Compound 21, [3S-[2(2S*,3S*),3 alpha,4abeta,8abeta]]-N-(1,1-dimethyl-2-hydroxyethyl)decahydro-2-[2-hydroxy-3-[(3-hydroxy-2-methylbenzoyl)amino]-4-(phenylthio)butyl]-3-isoquinolinecarboxamide] |  |  | 2825 | 96600 |  | 1082 | 92600 | 5.6 ± 0.91 | 34.2 | 154 | 85.6 | obtained as a metabolite from the plasma of patients |  |  | 
Nc1ccn([C@H]2CC[C@@H](CO)O2)c(=O)n1 [ddC, dideoxycytidine] |  |  | 398 |  |  | 30 |  |  | 94.7 | 142 | 5920 |  | 37700 | 176000 | 
His-Lys-Ala-Arg-Val-Leu-Phe(paraNO2)-Glu-Ala-Nle-Ser-NH2 |  |  |  |  |  |  |  |  |  |  |  |  |  |  | 59 ± 17
